Patent US12697330B2, “Therapeutic methods using vadadustat” (Akebia Therapeutics, Inc., priority 2021, dated 2026)

What was measured:
Type in all cases: in vivo, human
[1] = tested on: erythropoietin (EPO); assay: Phase 2 study, Main Study: pharmacodynamics, Baseline-Unadjusted serum EPO concentration
Description: (§1) PK/PD Endpoints. An exposure-response analysis of vadadustat and PD measures were conducted as deemed appropriate. The PK parameters included (but were not limited to) the following: area under concentration-time curve from dosing to last measurable concentration (AUClast), area under concentration-time curve from dosing to infinity (AUCinf), Cmax, apparent total body clearance (CL/F), apparent volume of distribution (Vd/F), and terminal half-life (t1/2). The PD parameters included (but were not limited to) the following: EPO, reticulocytes, iron, ferritin, TIBC, and hepcidin.
(§2) PK population: included all randomized subjects who received study drug (vadadustat or epoetin alfa) and had enough drug concentrations to estimate AUC and Cmax. Analysis of this population was based on the dose amount taken at the date of PK sampling for the vadadustat group.
PD parameters for serum EPO concentration are presented by epoetin alfa stratification for vadadustat treatment groups in Table 7, Table 8a and Table 8b (baseline-unadjusted) and Table 9, Table 10a and Table 10b (baseline-adjusted).

[2] = tested on: hemodialysis subjects; assay: Main Study: vadadustat versus epoetin alfa in hemodialysis subjects (Hb, ESA/RBC rescue, EPO levels)
Text: The primary efficacy endpoint was to assess the mean change in Hb between baseline and the PEP (Weeks 10 to 12) in hemodialysis subjects.
The first key secondary efficacy endpoint was the proportion of subjects with Hb values within the target range (10.0 to 11.0 g/dL, inclusive) at the PEP (Weeks 10 to 12).
The second key secondary endpoint was the mean change in Hb from PEP (average Hb from Weeks 10 to 12) to the SEP (average Hb from Weeks 18 to 20) for subjects who transitioned to TIW vadadustat dosing. In the Main Study, the change in Hb from PEP to SEP for the 17 subjects who switched from QD to TIW was −0.4 g/dL.

[3] = tested on: healthy adults; assay: Drug interaction study with co-administration of vadadustat in healthy adults; details: with probenecid, an inhibitor of UGT and OAT1/3 transporters
Text: Sulfasalazine. Other Breast Cancer Resistance Protein Substrates. and Probenecid. Exposures to sulfasalazine (moderately) and mesalamine (mildly) were increased with co-administration of vadadustat based on a study in healthy adults. In subjects taking vadadustat, sulfasalazine and other clinically relevant substrates of the breast cancer resistance protein (BCRP) transporter (e.g., sulfasalazine, methotrexate, mitoxantrone, imatinib, irinotecan, lapatinib, topotecan, tenofovir, glecaprevir, pibrentasvir, or sofosbuvir), caution should be taken during the study. Probenecid, an inhibitor of UDP-glucuronosyltransferase (UGT) and the organic anion transporter (OAT)1/3 transporters, increased vadadustat area under the curve and is prohibited during the study.

[4] = Phase 2 study, Main Study: pharmacokinetics (vadadustat and vadadustat-O-glucuronide concentration)
Description: as §1, §2

[5] = low epoetin alfa stratum, Week 1 and Week 1+1 day

O=C(O)CNC(=O)c1ncc(-c2cccc(Cl)c2)cc1O [vadadustat, {[5-(3-chlorophenyl)-3-hydroxypyridine-2-carbonyl]amino}acetic acid]
EPO concentration versus dose ([1]; high epoetin alfa stratum): No particular trend
EPO Cmax versus dose ([1]; high epoetin alfa stratum, Week 1): dose dependent
EPO Cmax and AUC versus comparator [1, 5]: lower compared to the epoetin alfa treatment group
EPO Cmax and AUC versus dose [1, 5]: dose proportional
EPO concentration versus dose ([1]; low epoetin alfa stratum, Week 1 and Week 1+1 day (300, 450 mg), Week 11 (150 to 600 mg)): Dose dependent increases in EPO concentrations
subjects receiving ESA administration as rescue ([2]; Baseline (inclusive) to Week 12 (inclusive), compared to epoetin alfa treated subjects): more
subjects receiving any ESA administration ([2]; Baseline (inclusive) to Week 20 (inclusive), compared to epoetin alfa treated subjects): more
change in Hb from PEP (Weeks 10 to 12) to SEP (Weeks 18 to 20) ([2]; Main Study, 17 subjects who switched from QD to TIW): -0.4 g/dL
mean change from baseline in Hb ([2]; Main Study, baseline to PEP (Weeks 10 to 12), compared to epoetin alfa treatment group, throughout): numerically lower
mean (SD) Hb overall at Weeks 10 to 12 ([2]; Main Study, compared to epoetin alfa): lower
mean change in Hb between baseline and the SEP ([2]; Main Study, compared to epoetin alfa treatment group): lower
proportion of subjects with RBC transfusion and RBC transfusion as rescue ([2]; across treatment groups, all study periods): similar
change from baseline in Hb ([2]; high epoetin alfa stratum, vadadustat 300 mg, after Week 10 Hb began to return towards baseline): decrease from baseline in Hb up to Week 10
number of subjects within target Hb range ([2]; high epoetin alfa stratum, vadadustat groups (particularly 300 mg) compared to epoetin alfa treatment group): numerically lower
change from baseline in Hb ([2]; low epoetin alfa stratum, except for the vadadustat 300 mg group throughout treatment): no decrease from baseline in Hb was observed
proportion of subjects with Hb values within the target range (10.0 to 11.0 g/dL, inclusive) at Weeks 10 to 12 ([2]; vadadustat 300 mg group of the high epoetin alfa stratum, lowest proportion): 8.3%
vadadustat area under the curve [3]: increased
concentrations versus dose ([4]; TIW group): No dose dependent increases in concentrations
mean concentration versus time profiles, dose dependency ([4]; Week 1, Week 1+1 day, and Week 11): concentrations increased with dose levels
